According to paper PMC7694175, “Kunitz-Type Peptides from the Sea Anemone Heteractis crispa Demonstrate Potassium Channel Blocking and Anti-Inflammatory Activities” (Biomedicines, 2020):
Where two headings read alike, the source gives them in different places. Bridge positions count the residues as written; N and C are the ends. Ends that are not written are not given here.

Tests used:
Shaker IR = test system: Shaker IR; design: key to IC50 Shaker IR (class symbol): -: no or weak activity; conditions: cited from earlier work
Kv1.3 = test system: Kv1.3; design: key to IC50 Kv1.3 (class symbol): -: no or weak activity; conditions: cited from earlier work
Kv1.1 = conditions: cited from earlier work
Text: (§1) Kalicludines block Kv1.2 in µM concentratio ...

Kv1.2 = test system: Kv1.2; design: key to IC50 Kv1.2 (class symbol): -: no or weak activity; conditions: cited from earlier work
Text: Table 1 Kunitz-type voltage-gated potassium channel toxins from animal venoms. | column: IC50 (nM) / Kv1.2

Kv1.6 = test system: Kv1.6; design: key to IC50 Kv1.6 (class symbol): -: no or weak activity; conditions: cited from earlier work
Text: Table 1 Kunitz-type voltage-gated potassium channel toxins from animal venoms. | column: IC50 (nM) / Kv1.6

TNF-α = TNF-α ELISA in blood of mice with carrageenan-induced inflammation; assay type: in vivo, ICR mice; conditions: mouse blood 24 h after carrageenan, indomethacin 5 mg/kg oral
Procedure: Tests were performed on male ICR mice, with six individuals in each group. A peptide sample was dissolved in sterile saline and administered intravenously at doses of 0.1 and 1.0 mg/kg. Control animals received an equivalent volume of sterile saline. Indomethacin at a dose of 5 mg/kg was used as a positive control and administered orally to animals. Each mouse received 20 μL of a 1% solution of carrageenan in the hind paw pad after 30 min in the case of saline and tested peptide and after 60 min in the case of indomethacin. Then, the resulting edema was measured at several time points (1, 3, 5, and 24 h) using a plethysmometer (Ugo Basile, Gemonio (VA), Italy).
Animals were terminally anaesthetized with sodium pentobarbital ([…] i.p., Euthatal, Merial Animal Health, Essex, UK) 24 h after carrageenan injection. Then the thoracic cavity was opened and blood was collected in tubes with the ethylenediaminetetraacetic acid (EDTA) directly from the right atrium of the heart. The whole blood was centrifuged at 2.5 × 10^3× g for 10 min to remove cells; the blood serum was then aliquoted and stored at −20 °C. These samples were analyzed for TNF-α in the enzyme-linked immunosorbent assay (ELISA) using a diagnostic kit according to the manufacturer’s protocol (CUSABIO BIOTECH Co., Ltd., Houston, TX, USA).

trypsin = conditions: cited from earlier work
[1] = test system: macrophages treated with LPS; conditions: ref [68]; cited from earlier work
Text: Kv1.3 channels have gained a prominent role for their possibility to control neuroinflammatory and autoimmune diseases. Inflammation involves several processes including the activation of inflammatory cells, the secretion of pro-inflammatory cytokines and the release of various inflammatory mediators, leading to symptoms of inflammation such as redness, swelling, fever and pain [67].

crabs = conditions: ref [18]; cited from earlier work
[2] = test system: Kv1.1, Kv1.2, and Kv1.6 channels in rat synaptosomal membranes; conditions: ref [18], cited from earlier work; for IC50: 125I α-DTX dendrotoxin binding to synaptosomal membranes
Text: as §1

Question: Which “IC50 Shaker IR (class symbol)” value (Shaker IR; ref [19]) does the source give for “ShPI-1: ShPI-1 (P31713) from S. helianthus (SICSEPKKVGRCKGYFPRFYFDSETGKCTPFIYGGCGGNGNNFETLHQCRAICRA; UniProt P31713 1-55, looked up)” here?
Answer: The value was “-”.

Question: What about the “IC50 Kv1.3 (class symbol)” value (Kv1.3; ref [19]) of the same molecule?
Answer: Its value is “-”.

Question: And the IC50 (Kv1.1; ref [19])?
Answer: Its IC50 is 117 ± 15 nM.

Question: What about the IC50 (Kv1.2; ref [19]) of the same molecule?
Answer: Its IC50 is 9 ± 2 nM.

Question: What about the IC50 (Kv1.6; ref [19]) of the same molecule?
Answer: The IC50 was 9 ± 2 nM.

Question: With “AsKC1: AsKC1 (Q9TWG0) from A. sulcata (INKDCLLPMDVGRCRASHPRYYYNSSSKRCEKFIYGGCRGNANNFHTLEECEKVCGVR; disulfide 14-38, 30-51, 5-55 (inferred); UniProt Q9TWG0 1-58, looked up)” as the molecule, how does the IC50 (Kv1.2; ref [16]) read?
Answer: Its IC50 is 2800 nM.

Question: Which “effect on TNF-α synthesis” value (TNF-α) does the source give for `COc1ccc2c(c1)c(CC(=O)O)c(C)n2C(=O)c1ccc(Cl)cc1` [indomethacin] here?
Answer: The value was “reduced the synthesis of TNF-α”.

Question: For “DTX-δ: DTX-δ (P00982) from Dendroaspis angusticeps (AAKYCKLPVRYGPCKKKIPSFYYKWKAKQCLPFDYSGCGGNANRFKTIEECRRTCVG; UniProt P00982 1-57, looked up)”, which IC50 (Shaker IR; ref [49]) is on record?
Answer: The IC50 was 1000 nM.

Question: What about the IC50 (Kv1.1; ref [49]) of the same molecule?
Answer: Its IC50 is 0.01 nM.

Question: For “LmKTT-1a: LmKTT-1a (P0DJ46) from scorpion Lychas mucronatus”, which IC50 (Kv1.3; ref [50]) is on record?
Answer: The IC50 was 1580 ± 73 nM.

Question: What about the IC50 (Kv1.1; ref [50]) of the same molecule?
Answer: The IC50 was over 1000 nM.

Question: What about the IC50 (Kv1.2; ref [50]) of the same molecule?
Answer: The IC50 was over 1000 nM.

Question: For “AsKC3: AsKC3 (Q9TWF8) from A. sulcata (INGDCELPKVVGRCRARFPRYYYNLSSRRCEKFIYGGCGGNANNFHTLEECEKVCGVRS; disulfide 14-38, 30-51, 5-55 (inferred); UniProt Q9TWF8 1-59, looked up)”, which IC50 (Kv1.2; ref [16]) is on record?
Answer: Its IC50 is 1300 nM.

Question: What does the source list for “APEKTx1: APEKTx1 (P61541) from the sea anemone A. elegantissima (GTTCYCGKTIGIYWFGTKTCPSNRGYTGSCGYFLGICCYPVD; UniProt P61541 1-42, looked up)”?
Answer: IC50 Shaker IR (class symbol) (Shaker IR; ref [17]): -; IC50 Kv1.3 (class symbol) (Kv1.3; ref [17]): -; IC50 (Kv1.1; ref [17]): 0.9 nM; Kv1.1 block (in words) (Kv1.1; ref [17]): selectively blocks Kv1.1 channels; trypsin inhibition (in words) (trypsin; ref [17]): effectively inhibiting trypsin; IC50 Kv1.2 (class symbol) (Kv1.2; ref [17]): -; IC50 Kv1.6 (class symbol) (Kv1.6; ref [17]): -

Question: Which IC50 (Kv1.2; ref [16]) does the source give for “AsKC2: AsKC2 (Q9TWF9) from A. sulcata (INKDCLLPMDVGRCRARHPRYYYNSSSRRCEKFIYGGCRGNANNFITKKECEKVCGVR; disulfide 14-38, 30-51, 5-55 (inferred); UniProt Q9TWF9 1-58, looked up)” here?
Answer: The IC50 was 1100 nM.

Question: With “DTX-I: DTX1 (P00979) from snake Dendroaspis polylepis (QPLRKLCILHRNPGRCYQKIPAFYYNQKKKQCEGFTWSGCGGNSNRFKTIEECRRTCIRK; UniProt P00979 1-60, looked up)” as the molecule, how does the IC50 (Kv1.1; ref [48]) read?
Answer: The IC50 was 3.1 nM.

Question: What about the IC50 (Kv1.2; ref [48]) of the same molecule?
Answer: Its IC50 is 0.13 nM.

B1: bikunin: a human Kunitz-type peptide (protein, UniProt P02760 206-352, looked up)
Inter-alpha-trypsin inhibitor …: AVLPQEEEGSGGGQLVTEVTKKEDSCQLGYSAGPCMGMTSRYFYNGTSMACETFQYGGCMGNGNNFVTEKECLQTCRTVAACNLPIVRGPCRAFIQLWAFDAVKGKCVLFPYGGCQGNGNKFYSEKECREYCGVPGDGDEELLRFSN
modifications: Inter-alpha-trypsin inhibitor light chain
notes: a human Kunitz-type peptide
Question: For B1, which “effect on production of mediators” value [1] is on record?
Answer: Its value is “inhibits the production of thromboxane B2, TNF-α, and IL-8”.

B2: SHTXIII: SHTXIII (B1B5I8) from S. haddoni (protein, UniProt B1B5I8 20-81, looked up)
KappaPI-stichotoxin-Shd2a: TEEMPALCHLQPDVPKCRGYFPRYYYNPEVGKCEQFIYGGCGGNKNNFVSFEACRATCIIPL
Question: With B2 as the molecule, how does the “paralysis of crabs (in words)” value (crabs) read?
Answer: Its value is “paralyzes crabs”.

Question: What about the IC50 ([2]; column Kv1.1, read-out: IC50 Kv1.1 (125I α-DTX binding)) of the same molecule?
Answer: Its IC50 is 270 nM.

Question: And the IC50 ([2]; column Kv1.2, read-out: IC50 Kv1.2 (125I α-DTX binding))?
Answer: The IC50 was 270 nM.

Question: What about the IC50 ([2]; column Kv1.6, read-out: IC50 Kv1.6 (125I α-DTX binding)) of the same molecule?
Answer: The IC50 was 270 nM.

Question: And the “competition with the binding of α-DTX (in words)” value ([2]; rat synaptosomal membranes, at the level of Kv1.1, Kv1.2, and Kv1.6)?
Answer: The value was “competed with the binding of α-DTX”.

Question: And the “trypsin inhibition (in words)” value (trypsin; ref [18])?
Answer: The value was “inhibited trypsin”.
